Experimental findings from US8563551B2, “Method for preventing or treating a disease related to the glucocorticoid receptor” (Santen Pharmaceutical Co., Ltd., priority 2006, dated 2013) are described below.

The structures appear in SMILES notation.

This test has as its target T1, Recombinant human GR (Homo sapiens, UniProt P04150).
T1 construct: purchased Invitrogen P2816
T1 sequence (P04150 1-777): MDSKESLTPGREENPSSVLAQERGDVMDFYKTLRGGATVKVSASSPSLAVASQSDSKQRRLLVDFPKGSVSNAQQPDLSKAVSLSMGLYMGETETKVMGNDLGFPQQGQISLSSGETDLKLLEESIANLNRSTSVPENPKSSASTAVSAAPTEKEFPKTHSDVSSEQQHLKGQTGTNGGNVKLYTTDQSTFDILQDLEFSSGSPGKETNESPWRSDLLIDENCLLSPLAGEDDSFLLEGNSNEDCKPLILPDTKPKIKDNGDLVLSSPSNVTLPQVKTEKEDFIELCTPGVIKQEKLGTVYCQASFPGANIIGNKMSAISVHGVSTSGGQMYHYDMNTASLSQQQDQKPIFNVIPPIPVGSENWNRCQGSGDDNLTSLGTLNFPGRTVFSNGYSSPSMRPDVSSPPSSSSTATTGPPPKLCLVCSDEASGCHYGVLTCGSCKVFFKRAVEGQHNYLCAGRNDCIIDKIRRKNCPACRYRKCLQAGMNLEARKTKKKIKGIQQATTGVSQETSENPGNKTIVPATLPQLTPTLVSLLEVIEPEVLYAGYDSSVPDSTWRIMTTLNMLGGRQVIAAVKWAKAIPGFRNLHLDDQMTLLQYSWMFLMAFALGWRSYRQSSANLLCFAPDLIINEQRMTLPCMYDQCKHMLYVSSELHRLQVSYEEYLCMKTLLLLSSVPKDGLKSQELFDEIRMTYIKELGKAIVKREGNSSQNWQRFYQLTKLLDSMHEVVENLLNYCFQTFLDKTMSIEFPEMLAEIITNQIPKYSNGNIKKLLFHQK
The experiment in a line: GR competitor assay (receptor competitor assay by fluorescence polarization, Invitrogen kit P2816). The conditions noted are these: 20 μM test compound solution (10 μL per well plus 5 μL 4×GS1 and 5 μL 4×GR); relative to 2 mM dexamethasone positive control; ratios of 100% or more are indicated by 100%; read-out: GR Binding ratio (%). The protocol:
In order to evaluate a binding activity to GR, a receptor competitor assay was carried out by a fluorescence polarization method. In the assay, a GR competitor assay kit (manufactured by Invitrogen, cat No. P2816) was used, and a procedure was carried out according to the protocol attached to the kit. Hereinafter, the specific method will be described.
GR screening buffer: A buffer containing 10 mM potassium phosphate (pH 7.4), 20 mM sodium molybdate (Na2MoO4), 0.1 mM ethylene diamine tetraacetic acid (EDTA), 5 mM dithiothreitol (DTT), 0.1 mM stabilizing peptide and 2% dimethylsulfoxide was prepared.
4×GS1 solution: Fluormone™ GS1, which is a fluorescent glucocorticoid ligand, was diluted with GR screening buffer, whereby a 4 nM solution was prepared.
4×GR solution: Recombinant human GR was diluted with GR screening buffer, whereby a 16 nM solution was prepared.
After a test compound was dissolved in dimethylsulfoxide, the resulting solution was diluted with GR screening buffer, whereby a 20 μM test compound solution was prepared.
1) The test compound solution was added in an amount of 10 μL into each well of a 384-well plate, and then, 4×GS1 solution and 4×GR solution were added in an amount of 5 μL into each well, respectively.
2) The plate was incubated in a dark place at room temperature for 2 to 4 hours.
3) By using a multimode plate reader, Analyst™ HT (manufactured by LJL Biosystems), fluorescence polarization of each well was measured. As the blank, a well containing GR screening buffer in place of the test compound and 4×GS1 solution was used.
4) The same procedure as that in the above 1) to 3) was carried out except that GR screening buffer was used in place of the test compound solution, and the obtained result was taken as the negative control.
5) The same procedure as that in the above 1) to 3) was carried out except that 2 mM dexamethasone was used in place of the test compound solution, and the obtained result was taken as the positive control.
A GR binding ratio (%) was calculated from the following equation. GR binding ratio(%)=100×[1−(fluorescence polarization of test compound solution−fluorescence polarization of positive control solution)/(fluorescence polarization of negative control solution fluorescence polarization of positive control solution)] (Test Results and Discussion)
(Polarisation of emitted light reports the rotation of a fluorescent probe.)

As to `COC(=O)c1cccc(C(=O)Oc2ccc(-c3ccc4c(c3COC(=O)c3ccc(C)s3)C(C)=CC(C)(C)N4)c(OC)c2)c1` [Compound 1-26, 6-[2-Methoxy-4-(3-methoxycarbonylbenzoyloxy)phenyl]-5-(5-methylthiophen-2-ylcarbonyloxymethyl)-2,2,4-trimethyl-1,2-dihydroquinoline], the inhibition at 20 µM (stock) turned out to be 94%.

As for `COc1cc(OC(=O)c2cccc(C(C)=O)c2)ccc1-c1ccc2c(c1COC(=O)c1ccc(C)s1)C(C)=CC(C)(C)N2` [Compound 1-27, 6-[4-(3-Acetylbenzoyloxy)-2-methoxyphenyl]-5-(5-methylthiophen-2-ylcarbonyloxymethyl)-2,2,4-trimethyl-1,2-dihydroquinoline], the inhibition at 20 µM (stock) is 89%.

On to `COc1cc(OC(=O)c2cccs2)ccc1-c1ccc2c(c1COC(=O)c1ccc(C)s1)C(C)=CC(C)(C)N2` [Compound 1-29, 6-[2-Methoxy-4-(thiophen-2-ylcarbonyloxy)phenyl]-5-(5-methylthiophen-2-ylcarbonyloxymethyl)-2,2,4-trimethyl-1,2-dihydroquinoline], for which the inhibition at 20 µM (stock) amounted to 96%.

`COc1cc(OC(=O)c2cccnc2C)ccc1-c1ccc2c(c1COC(=O)c1ccc(C)s1)C(C)=CC(C)(C)N2` [Compound 1-30, 6-[2-Methoxy-4-(2-methylpyridin-3-ylcarbonyloxy)phenyl]-5-(5-methylthiophen-2-ylcarbonyloxymethyl)-2,2,4-trimethyl-1,2-dihydroquinoline]: the inhibition at 20 µM (stock) was 96%.

Regarding `COc1cc(OC(=O)c2sccc2Cl)ccc1-c1ccc2c(c1COC(=O)c1ccc(C)s1)C(C)=CC(C)(C)N2` [Compound 1-31, 6-[4-(3-Chlorothiophen-2-ylcarbonyloxy)-2-methoxyphenyl]-5-(5-methylthiophen-2-ylcarbonyloxymethyl)-2,2,4-trimethyl-1,2-dihydroquinoline], the inhibition at 20 µM (stock) is 88%.

Regarding `COc1cc(OC(=O)c2cscn2)ccc1-c1ccc2c(c1COC(=O)c1ccc(C)s1)C(C)=CC(C)(C)N2` [Compound 1-32, 6-[2-Methoxy-4-(thiazol-4-ylcarbonyloxy)phenyl]-5-(5-methylthiophen-2-ylcarbonyloxymethyl)-2,2,4-trimethyl-1,2-dihydroquinoline], the inhibition at 20 µM (stock) turned out to be 99%.

On to `COc1cc(OC(=O)c2ccncc2)ccc1-c1ccc2c(c1COC(=O)c1ccc(C)s1)C(C)=CC(C)(C)N2` [Compound 1-33, 6-[2-Methoxy-4-(pyridin-4-ylcarbonyloxy)phenyl]-5-(5-methylthiophen-2-ylcarbonyloxymethyl)-2,2,4-trimethyl-1,2-dihydroquinoline], for which the inhibition at 20 µM (stock) came to 96%.

`COc1ccc(C(=O)OCc2c(-c3ccc(OC(=O)c4cccnc4)cc3OC)ccc3c2C(C)=CC(C)(C)N3)cc1` [Compound 1-34, 5-(4-Methoxybenzoyloxymethyl)-6-[2-methoxy-4-(pyridin-3-ylcarbonyloxy)phenyl]-2,2,4-trimethyl-1,2-dihydroquinoline]: the inhibition at 20 µM (stock) was found to be 95%.

In the case of `COc1ccc(C(=O)OCc2c(-c3ccc(OC(=O)c4ccccc4Cl)cc3OC)ccc3c2C(C)=CC(C)(C)N3)cc1` [Compound 1-35, 6-[4-(2-Chlorobenzoyloxy)-2-methoxyphenyl]-5-(4-methoxybenzoyloxymethyl)-2,2,4-trimethyl-1,2-dihydroquinoline], the inhibition at 20 µM (stock) was 100%.

Turning to `COc1ccc(C(=O)OCc2c(-c3ccc(OC(=O)c4ccco4)cc3OC)ccc3c2C(C)=CC(C)(C)N3)cc1` [Compound 1-36, 6-[4-(Furan-2-ylcarbonyloxy)-2-methoxyphenyl]-5-(4-methoxybenzoyloxymethyl)-2,2,4-trimethyl-1,2-dihydroquinoline], the inhibition at 20 µM (stock) is 100%.

`COc1cc(OC(=O)c2cccnc2)ccc1-c1ccc2c(c1COC(=O)c1ccc(Br)s1)C(C)=CC(C)(C)N2` [Compound 1-37, 5-(5-Bromothiophen-2-ylcarbonyloxymethyl)-6-[2-methoxy-4-(pyridin-3-ylcarbonyloxy)phenyl]-2,2,4-trimethyl-1,2-dihydroquinoline]: the inhibition at 20 µM (stock) is 100%.

Take `COc1cc(OC(=O)c2ccco2)ccc1-c1ccc2c(c1COC(=O)c1ccc(Br)s1)C(C)=CC(C)(C)N2` [Compound 1-39, 5-(5-Bromothiophen-2-ylcarbonyloxymethyl)-6-[4-(furan-2-ylcarbonyloxy)-2-methoxyphenyl]-2,2,4-trimethyl-1,2-dihydroquinoline]: the inhibition at 20 µM (stock) is 100%.

Take `COc1cc(OC(=O)C(C)C)ccc1-c1ccc2c(c1COC(=O)c1ccc(C)s1)C(C)=CC(C)(C)N2` [Compound 1-43, 6-(4-Isopropylcarbonyloxy-2-methoxyphenyl)-5-(5-methylthiophen-2-ylcarbonyloxymethyl)-2,2,4-trimethyl-1,2-dihydroquinoline]: the inhibition at 20 µM (stock) stood at 100%.

On to `COc1cc(OC(=O)c2ccccc2OC(C)=O)ccc1-c1ccc2c(c1COC(=O)c1ccc(C)s1)C(C)=CC(C)(C)N2` [Compound 1-44, 6-[4-(2-Acetoxybenzoyloxy)-2-methoxyphenyl]-5-(5-methylthiophen-2-ylcarbonyloxymethyl)-2,2,4-trimethyl-1,2-dihydroquinoline], for which the inhibition at 20 µM (stock) was 96%.

Consider `COc1cc(OC(=O)c2cccnc2OC)ccc1-c1ccc2c(c1COC(=O)c1ccc(C)s1)C(C)=CC(C)(C)N2` [Compound 1-45, 6-[2-Methoxy-4-(2-methoxypyridin-3-ylcarbonyloxy)phenyl]-5-(5-methylthiophen-2-ylcarbonyloxymethyl)-2,2,4-trimethyl-1,2-dihydroquinoline], for which the inhibition at 20 µM (stock) stood at 100%.

In the case of `COc1cc(OC(=O)c2cccc(C)c2)ccc1-c1ccc2c(c1COC(=O)c1ccc(C)s1)C(C)=CC(C)(C)N2` [Compound 1-46, 6-[2-Methoxy-4-(3-methylbenzoyloxy)phenyl]-5-(5-methylthiophen-2-ylcarbonyloxymethyl)-2,2,4-trimethyl-1,2-dihydroquinoline], the inhibition at 20 µM (stock) worked out at 99%.

For `COc1cc(OC(=O)c2ccc(C)cc2)ccc1-c1ccc2c(c1COC(=O)c1ccc(C)s1)C(C)=CC(C)(C)N2` [Compound 1-47, 6-[2-Methoxy-4-(4-methylbenzoyloxy)phenyl]-5-(5-methylthiophen-2-ylcarbonyloxymethyl)-2,2,4-trimethyl-1,2-dihydroquinoline], the inhibition at 20 µM (stock) is 96%.

For `COc1cc(OC(=O)c2ccc(F)cc2)ccc1-c1ccc2c(c1COC(=O)c1ccc(C)s1)C(C)=CC(C)(C)N2` [Compound 1-48, 6-[4-(4-Fluorobenzoyloxy)-2-methoxyphenyl]-5-(5-methylthiophen-2-ylcarbonyloxymethyl)-2,2,4-trimethyl-1,2-dihydroquinoline], the inhibition at 20 µM (stock) came out at 96%.

On to `COc1cc(OC(=O)c2ccccc2[N+](=O)[O-])ccc1-c1ccc2c(c1COC(=O)c1ccc(C)s1)C(C)=CC(C)(C)N2` [Compound 1-49, 6-[2-Methoxy-4-(2-nitrobenzoyloxy)phenyl]-5-(5-methylthiophen-2-ylcarbonyloxymethyl)-2,2,4-trimethyl-1,2-dihydroquinoline], for which the inhibition at 20 µM (stock) came out at 98%.

Take `COc1cc(OC(=O)c2occc2C)ccc1-c1ccc2c(c1COC(=O)c1ccc(C)s1)C(C)=CC(C)(C)N2` [Compound 1-50, 6-[2-Methoxy-4-(3-methylfuran-2-ylcarbonyloxy)phenyl]-5-(5-methylthiophen-2-ylcarbonyloxymethyl)-2,2,4-trimethyl-1,2-dihydroquinoline]: the inhibition at 20 µM (stock) turned out to be 90%.
